# In ChEMBL document CHEMBL3885881, “DrugMatrix”:
# Species: Rattus norvegicus
# Assay: DrugMatrix - Regimen: Daily Repeat
# Format: toxicity, organism-based, Sprague-Dawley
# Set-up: regimen Daily Repeat, gender Male, age 6-8 weeks
# Conditions: in vivo, po, 200 mg/kg, route oral GAVAGE, dose level Low, […]; for ABSOLUTE BASOPHIL / ABSOLUTE EOSINOPHIL / ABSOLUTE LYMPHOCYTE / ABSOLUTE MONOCYTE / ABSOLUTE SEGMENTED NEUTROPHIL / BASOPHIL / EOSINOPHIL / ERYTHROCYTE COUNT / HEMATOCRIT / HEMOGLOBIN / LEUKOCYTE COUNT / LYMPHOCYTE / MEAN CORPUSCULAR HEMOGLOBIN / MEAN CORPUSCULAR HEMOGLOBIN CONCENTRATION / MEAN CORPUSCULAR VOLUME / MONOCYTE / NEUTROPHIL / NUCLEATED RED BLOOD CELLS / PLATELET COUNT: tissue Blood
# [1] = 72 h, tissue Plasma, time 3 day
# [2] = 120 h, tissue Plasma, time 5 day
structure (smiles),measurement,setting,value
CCOc1ccc(NC(C)=O)cc1 [PHENACETIN],ABSOLUTE BASOPHIL,"72 h, time 3 day",0 CELLS/uL
same,ABSOLUTE EOSINOPHIL,"72 h, time 3 day",0 CELLS/uL
same,ABSOLUTE LYMPHOCYTE,"72 h, time 3 day",12319.33 CELLS/uL
same,ABSOLUTE MONOCYTE,"72 h, time 3 day",297 CELLS/uL
same,ABSOLUTE SEGMENTED NEUTROPHIL,"72 h, time 3 day",1617 CELLS/uL
same,BASOPHIL,"72 h, time 3 day",0%
same,EOSINOPHIL,"72 h, time 3 day",0%
same,ERYTHROCYTE COUNT,"72 h, time 3 day",5.63 x10E6/uL
same,HEMATOCRIT,"72 h, time 3 day",34.9%
same,HEMOGLOBIN,"72 h, time 3 day",13.6 G/DL
same,LEUKOCYTE COUNT,"72 h, time 3 day",14.23 x10E3/uL
same,LYMPHOCYTE,"72 h, time 3 day",87%
same,MEAN CORPUSCULAR HEMOGLOBIN,"72 h, time 3 day",24.17 pg
same,MEAN CORPUSCULAR HEMOGLOBIN CONCENTRATION,"72 h, time 3 day",38.97 G/DL
same,MEAN CORPUSCULAR VOLUME,"72 h, time 3 day",62.03 fL
same,MONOCYTE,"72 h, time 3 day",2%
same,NEUTROPHIL,"72 h, time 3 day",11%
same,NUCLEATED RED BLOOD CELLS,"72 h, time 3 day",0 /100WBC
same,PLATELET COUNT,"72 h, time 3 day",1192.67 x10E3/uL
same,ALANINE AMINOTRANSFERASE,[1],73 u/L
same,ALBUMIN,[1],4.07 G/DL
same,ALKALINE PHOSPHATASE,[1],405 u/L
same,ASPARTATE AMINOTRANSFERASE,[1],98.33 u/L
same,BLOOD UREA NITROGEN,[1],12 mg/dL
same,CARBON DIOXIDE,[1],24.67 mmol/L
same,CHLORIDE,[1],101 MEQ/L
same,CHOLESTEROL,[1],65.33 mg/dL
same,CREATININE,[1],0.2 mg/dL
same,GLUCOSE,[1],172 mg/dL
same,LACTATE DEHYDROGENASE,[1],186.33 u/L
same,LIPASE,[1],11.33 u/L
same,PHOSPHORUS,[1],11.6 mg/dL
same,POTASSIUM,[1],6.01 MEQ/L
same,SODIUM,[1],142.63 MEQ/L
same,TOTAL BILIRUBIN,[1],0.2 mg/dL
same,TOTAL PROTEIN,[1],5.6 G/DL
same,URIC ACID,[1],1.77 mg/dL
same,ABSOLUTE BASOPHIL,"120 h, time 5 day",0 CELLS/uL
same,ABSOLUTE EOSINOPHIL,"120 h, time 5 day",0 CELLS/uL
same,ABSOLUTE LYMPHOCYTE,"120 h, time 5 day",14305.33 CELLS/uL
same,ABSOLUTE MONOCYTE,"120 h, time 5 day",246 CELLS/uL
same,ABSOLUTE SEGMENTED NEUTROPHIL,"120 h, time 5 day",1648.67 CELLS/uL
same,BASOPHIL,"120 h, time 5 day",0%
same,EOSINOPHIL,"120 h, time 5 day",0%
same,ERYTHROCYTE COUNT,"120 h, time 5 day",5.8 x10E6/uL
same,HEMATOCRIT,"120 h, time 5 day",35.23%
same,HEMOGLOBIN,"120 h, time 5 day",14.07 G/DL
same,LEUKOCYTE COUNT,"120 h, time 5 day",16.2 x10E3/uL
same,LYMPHOCYTE,"120 h, time 5 day",88%
same,MEAN CORPUSCULAR HEMOGLOBIN,"120 h, time 5 day",24.27 pg
same,MEAN CORPUSCULAR HEMOGLOBIN CONCENTRATION,"120 h, time 5 day",39.93 G/DL
same,MEAN CORPUSCULAR VOLUME,"120 h, time 5 day",60.8 fL
same,MONOCYTE,"120 h, time 5 day",1.67%
same,NEUTROPHIL,"120 h, time 5 day",10.33%
same,NUCLEATED RED BLOOD CELLS,"120 h, time 5 day",0 /100WBC
same,PLATELET COUNT,"120 h, time 5 day",1381.67 x10E3/uL
same,ALANINE AMINOTRANSFERASE,[2],72.67 u/L
same,ALBUMIN,[2],4.13 G/DL
same,ALKALINE PHOSPHATASE,[2],403.33 u/L
same,ASPARTATE AMINOTRANSFERASE,[2],95.33 u/L
same,BLOOD UREA NITROGEN,[2],13.33 mg/dL
same,CARBON DIOXIDE,[2],31.33 mmol/L
same,CHLORIDE,[2],101.33 MEQ/L
same,CHOLESTEROL,[2],68.67 mg/dL
same,CREATINE PHOSPHOKINASE,[2],257.33 u/L
same,CREATININE,[2],0.19 mg/dL
same,GLUCOSE,[2],164.67 mg/dL
same,LACTATE DEHYDROGENASE,[2],323.67 u/L
same,LIPASE,[2],11.67 u/L
same,PHOSPHORUS,[2],10.7 mg/dL
same,POTASSIUM,[2],6.24 MEQ/L
same,SODIUM,[2],143.9 MEQ/L
same,TOTAL BILIRUBIN,[2],0.2 mg/dL
same,TOTAL PROTEIN,[2],5.87 G/DL
same,URIC ACID,[2],1.77 mg/dL
